In PubChem BioAssay AID977621 (Broad Institute, 2014):
Records with an inconclusive call do not appear.

Each compound was assayed on E. coli H69 humanized mutant ribosome RFP strain growth, fluorescence, 24 h (assay: wild-type E. coli growth inhibition versus H69 humanized strain – H69 mutant RFP, wild-type GFP, cherry-pick, dose response (AID 977621;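 also: wild-type GFP and H69 mutant RFP strains grown together 50/50 in each well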)). Conditions: test 2.

Point of comparison: `Cc1noc(NS(=O)(=O)c2ccc(NC(=O)c3cc(-c4ccccc4Cl)nc4ccccc34)cc2)c1C`, AC50 45.6 µM. Against it:
- COc1ccc(-c2csc(NC(=O)c3ccccc3S(C)(=O)=O)n2)cc1 — higher, > 100 µM
- Cc1ccccc1CSc1nnc(-c2ccccn2)n1C — 1.6-fold lower, 28.3 µM
- C[C@H]1CN([C@@H](C)CO)C(=O)CCCn2nncc2CO[C@@H]1CN(C)Cc1ccccc1C(F)(F)F — higher, > 100 µM
- COc1ccc(OC2C(=O)N(Cc3ccc4c(c3)OCO4)C2c2cccs2)cc1 (centres undefined) — within 1.5-fold, 47.4 µM
- CCOC(=O)C1CCCN(Cc2c(Cl)cccc2Cl)C1 (centres undefined) — 6.8-fold lower, 6.66 µM
- C=CCNC(=O)c1ccccc1CCc1ccccc1 — higher, > 100 µM
- O=C(c1ccc(-n2cccn2)cc1)N1CCc2ccccc2C1 — within 1.5-fold, 52.2 µM
- Brc1ccccc1Cn1c(-c2cncs2)nc2ccccc21 — higher, > 100 µM
- CNC(=O)c1ccsc1NC(=O)c1ccc(S(=O)(=O)N2CCc3ccccc32)cc1 — 21-fold lower, 2.19 µM
- O=C(Nc1nnc(Cc2ccc(Cl)cc2)s1)c1ccncc1 — higher, > 100 µM
- CCc1c(N=O)c(-c2ccccc2)n(O)[n+]1[O-] — 7.2-fold lower, 6.29 µM
- Cc1noc(C)c1NC(=O)Nc1ccc2c(c1)C(=O)N([C@@H](C)CO)C[C@@H](C)[C@H](CN(C)C(=O)Nc1ccc3c(c1)OCO3)OCCCC[C@H](C)O2 — higher, > 100 µM
- O=S(=O)(c1cccc(-c2nc3ccccc3s2)c1)N1CCCC1 — higher, > 100 µM
- Cc1ccccc1-c1nc(CS(=O)(=O)CC(=O)N2CCCCC2)c(C)o1 — higher, > 100 µM
- CCc1cc2c(=O)n(Cc3ccccc3)c(SC3CCOC3=O)nc2s1 (centres undefined) — within 1.5-fold, 52.3 µM
- CCCc1nc2oc3c(NCCCN(C)C)ncnc3c2c2c1CCCC2 — 6.8-fold lower, 6.74 µM
- CSc1ccc(CN(C)C(=O)C(c2ccccc2)c2ccccc2)cc1 — within 1.5-fold, 50.1 µM
- COc1cccc(CNC(=O)CCSCc2ccccc2F)c1 — higher, > 100 µM
- Cc1ccc(Cl)cc1N1CCN(C(=O)c2ccc3nc[nH]c3c2)CC1 — within 1.5-fold, 51.4 µM
- O=C(CCNC(=O)c1ccccc1)Nc1ccc(Cl)c(S(=O)(=O)N2CCCCC2)c1 — within 1.5-fold, 42.6 µM
- Cc1ccc(NC(=O)CN(C)S(=O)(=O)c2cccc3cccnc23)cc1F — higher, > 100 µM
- CN1CCN(CC(=O)c2cc(C(C)(C)C)c(O)c(C(C)(C)C)c2)CC1 — higher, > 100 µM
- Cc1ccccc1S(=O)(=O)c1cc2ccccc2nc1N — higher, > 100 µM
- CCOc1ccc(NC(=O)CCc2nnc3ccc(N4CCC(C)CC4)nn23)cc1 — within 1.5-fold, 51.2 µM
- CCc1cccc(NC(=O)c2ccc3c(=O)n4c(nc3c2)CCCCC4)c1 — higher, > 100 µM
- O=C(NCCc1csc(-c2ccccc2)n1)c1ccccc1F — within 1.5-fold, 49 µM
- CN1CCSc2ccc(C(=O)Nc3cccc(F)c3)cc21 — 54-fold lower, 0.837 µM
- O=C1N2c3ccccc3CCc3cccc(c32)C1(O)C(F)(F)F (centres undefined) — within 1.5-fold, 43.6 µM
- CC(C)(C)N(Cc1ccccc1)C(=O)COC(=O)Cn1cnc2ccccc2c1=O — higher, > 100 µM
- Cc1cc(-c2ccc(C)c(S(=O)(=O)NCC3CCN(Cc4ccccc4F)CC3)c2)on1 — higher, > 100 µM
- CCCCNC(=O)C[C@@H]1C[C@@]2(C(=O)OC)CCCCC=C2N(Cc2ccccc2)C1=O — higher, > 100 µM
- O=C(O)c1cc(-c2cccs2)nn1-c1cccc(Cl)c1 — within 1.5-fold, 46.1 µM
- Cc1ccc(S(=O)(=O)N(C(=O)c2ccncc2)c2ccc(OC(=O)c3ccncc3)cc2)c(C)c1 — higher, > 100 µM
- COc1ccc(C2CC(=O)CCN2S(=O)(=O)c2ccc(C)cc2)cc1 (centres undefined) — 12-fold lower, 3.86 µM
- O=C(O)c1cc(-c2ccc(-c3ccc(F)cc3)o2)nc2ccccc12 — within 1.5-fold, 39.6 µM
- Cc1c(CCOC(=O)C23CC4CC(CC(C4)C2)C3)sc[n+]1Cc1ccccc1 — 10-fold lower, 4.41 µM
- Cc1onc(-c2ccccc2Cl)c1C(=O)OCC(=O)c1ccccc1 — the same, 45.6 µM
- Oc1ccc(-c2csc(Nc3ncccn3)n2)cc1 — higher, > 100 µM
- COc1ccc2c(c1)c(C(C)=O)c(C)n2CCc1ccc(OC)c(OC)c1 — within 1.5-fold, 51 µM
- [O-][n+]1ccccc1/C=C/c1ccccc1 — higher, > 100 µM
- CCCCn1c(=O)[nH]c(=O)c2c1nc(-c1ccccc1F)n2Cc1ccccc1 — higher, > 100 µM
- O=C(CSc1nc2ccccc2n1S(=O)(=O)c1cccc([N+](=O)[O-])c1)NCCc1ccccc1 — higher, > 100 µM
- CSc1nnnn1-c1ccc(Cl)cc1 — higher, > 100 µM
- O=C(COC(=O)C1CC2C=CC1C2)Nc1ccc([N+](=O)[O-])cc1 (centres undefined) — higher, > 100 µM
- COc1ccccc1-c1noc2ncnc(Nc3cccc(C)c3C)c12 — higher, > 100 µM
- O=C(O)c1cccnc1SCc1ccccc1Cl — within 1.5-fold, 35.9 µM
- COC(=O)c1cc(C(=O)Cc2ccccc2)c[nH]1 — higher, > 100 µM
- Cc1cc(C)c(OCCN(C)Cc2ccccc2)c(Br)c1 — higher, > 100 µM
- Cc1ccc2c(N)c(C(=O)c3ccccc3)sc2n1 — within 1.5-fold, 50.8 µM
- CCN(CC)CC(=O)Nc1sc2c(c1C(=O)c1ccccc1OC)CCC2 — within 1.5-fold, 48.3 µM
- Cc1ccccc1-n1nnnc1SCCCC(=O)c1ccc(F)cc1 — 6.8-fold lower, 6.72 µM
- O=C(Nc1cccc(Oc2ccc3c(c2)C(=O)NC3=O)c1)c1cccs1 — 3.5-fold lower, 13 µM
- Cc1noc2ncnc(SCc3ccc(C(F)(F)F)cc3)c12 — higher, > 100 µM
- O=C(COC(=O)CCC(=O)c1ccc(F)cc1)NCCc1ccccc1 — higher, > 100 µM
- Fc1ccc(-c2nc3ccc(Cl)cn3c2Cc2cccc(Cl)c2)cc1 — higher, > 100 µM
- CSc1cccc(NC(=O)CCc2ccccc2)c1 — 2.3-fold lower, 20 µM
- O=C(O)c1cc2ccc3ccccc3c2[nH]1 — 6.4-fold lower, 7.13 µM
- COC(=O)c1sccc1NC(=O)Cn1nnc(-c2ccccc2C)n1 — within 1.5-fold, 45.1 µM
